Experimental data reported in ChEMBL document CHEMBL5154876, “Design, synthesis and promising anti-tumor efficacy of novel imidazo[1,2-a]pyridine derivatives as potent autotaxin allosteric inhibitors” (Eur J Med Chem, 2022).

Tests used:
RAW264.7 [1] = assay: Induction of cell cycle arrest in mouse RAW264.7 cells assessed as accumulation of cells in S phase at 0.5 uM incubated for 24 hrs by PI/RNase staining based flow cytometric analysis (RVB = 34.03%); assay type: functional
MCF7 = assay: Cytotoxicity against human MCF-7 cells assessed as inhibition of cell growth incubated for 72 hrs by MTT assay; assay type: functional, cell-based; conditions: MCF7, 72 h
RAW264.7 [2] = assay: Induction of apoptosis in mouse RAW264.7 cells assessed as early apoptotic cells at 0.5 uM after 48 hrs by Annexin V-FITC/PI based flow cytometric analysis (RVB=5.57%); assay type: functional
RAW264.7 [3] = assay: Antimigratory activity against mouse RAW264.7 cells assessed as decrease in cell migration rate measured upto 72 hrs by scratch wound healing assay; assay type: functional, cell-based; conditions: DDE = dose-dependent effect
A549 = assay: Cytotoxicity against human A549 cells assessed as inhibition of cell growth incubated for 72 hrs by MTT assay; assay type: functional, cell-based; conditions: A549, 72 h
RAW264.7 [4] = assay: Induction of apoptosis in mouse RAW264.7 cells assessed as necrotic cells at 1 uM after 48 hrs by Annexin V-FITC/PI based flow cytometric analysis (RVB=0.26%); assay type: functional
RAW264.7 [5] = assay: Induction of apoptosis in mouse RAW264.7 cells assessed as apoptotic cells measured after 48 hrs by acridine orange/ethidium bromide staining based fluorescence microscopy; assay type: functional, cell-based; conditions: dose 0.1-1 µM, DDE = dose-dependent effect
RAW264.7 [6] = assay: Induction of cell cycle arrest in mouse RAW264.7 cells assessed as accumulation of cells in G2 phase at 0.1 uM incubated for 24 hrs by PI/RNase staining based flow cytometric analysis (RVB = 10.90%); assay type: functional
RAW264.7 [7] = assay: Induction of cell cycle arrest in mouse RAW264.7 cells assessed as accumulation of cells in S phase at 0.1 uM incubated for 24 hrs by PI/RNase staining based flow cytometric analysis (RVB = 34.03%); assay type: functional
RAW264.7 [8] = assay: Induction of apoptosis in mouse RAW264.7 cells assessed as late apoptotic cells at 0.1 uM after 48 hrs by Annexin V-FITC/PI based flow cytometric analysis (RVB=0.098%); assay type: functional
NCI-H2228 = assay: Cytotoxicity against human H2228 cells assessed as inhibition of cell growth incubated for 72 hrs by MTT assay; assay type: functional, cell-based; conditions: NCI-H2228, 72 h
RAW264.7 [9] = assay: Induction of apoptosis in mouse RAW264.7 cells assessed as viable cells at 1 uM after 48 hrs by Annexin V-FITC/PI based flow cytometric analysis (RVB=94.1%); assay type: functional; conditions: read-out: Activity
RAW264.7 [10] = assay: Induction of apoptosis in mouse RAW264.7 cells assessed as viable cells at 0.25 uM after 48 hrs by Annexin V-FITC/PI based flow cytometric analysis (RVB=94.1%); assay type: functional; conditions: read-out: Activity
Autotaxin = Autotaxin (Homo sapiens, UniProt Q13822); assay: Negative allosteric modulation activity against human ATX using FS-3 as substrate preincubated for 45 mins followed by substrate addition and measured every 30 mins by multi-mode microplate reader
RAW264.7 [11] = assay: Induction of apoptosis in mouse RAW264.7 cells assessed as late apoptotic cells at 0.25 uM after 48 hrs by Annexin V-FITC/PI based flow cytometric analysis (RVB=0.098%); assay type: functional
Hep 3B2 = assay: Cytotoxicity against human Hep3B cells assessed as inhibition of cell growth incubated for 72 hrs by MTT assay; assay type: functional, cell-based
NCI-H1581 = assay: Cytotoxicity against human NCI-H1581 cells assessed as inhibition of cell growth incubated for 72 hrs by MTT assay; assay type: functional, cell-based; conditions: NCI-H1581, 72 h
RAW264.7 [12] = assay: Inhibition of colony formation in mouse RAW264.7 cells incubated for 72 hrs by crystal violet staining method; assay type: functional, cell-based; conditions: dose 0.1-1 µM, DDE = dose-dependent effect
RAW264.7 [13] = assay: Induction of apoptosis in mouse RAW264.7 cells assessed as early apoptotic cells at 0.25 uM after 48 hrs by Annexin V-FITC/PI based flow cytometric analysis (RVB=5.57%); assay type: functional
[14] = Acute toxicity in C57BL/6J mouse assessed as mortality at 1000 to 5000 mg/kg measured after 14 days; assay type: organism-based; conditions: in vivo, 336 h, dose 1000-5000 mg/kg, time 14 day
RAW264.7 [15] = assay: Induction of cell cycle arrest in mouse RAW264.7 cells assessed as accumulation of cells in G2 phase at 0.5 uM incubated for 24 hrs by PI/RNase staining based flow cytometric analysis (RVB = 10.90%); assay type: functional
RAW264.7 [16] = assay: Induction of apoptosis in mouse RAW264.7 cells assessed as necrotic cells at 0.1 uM after 48 hrs by Annexin V-FITC/PI based flow cytometric analysis (RVB=0.26%); assay type: functional
RAW264.7 [17] = assay: Induction of cell cycle arrest in mouse RAW264.7 cells assessed as accumulation of cells in G2 phase at 1 uM incubated for 24 hrs by PI/RNase staining based flow cytometric analysis (RVB = 10.90%); assay type: functional
RAW264.7 [18] = assay: Induction of cell cycle arrest in mouse RAW264.7 cells assessed as accumulation of cells in S phase at 1 uM incubated for 24 hrs by PI/RNase staining based flow cytometric analysis (RVB = 34.03%); assay type: functional
RAW264.7 [19] = assay: Induction of cell cycle arrest in mouse RAW264.7 cells assessed as accumulation of cells in G1 phase at 0.1 uM incubated for 24 hrs by PI/RNase staining based flow cytometric analysis (RVB = 55.06%); assay type: functional
RAW264.7 [20] = assay: Induction of apoptosis in mouse RAW264.7 cells assessed as late apoptotic cells at 0.5 uM after 48 hrs by Annexin V-FITC/PI based flow cytometric analysis (RVB=0.098%); assay type: functional
RAW264.7 [21] = assay: Induction of apoptosis in mouse RAW264.7 cells assessed as early apoptotic cells at 1 uM after 48 hrs by Annexin V-FITC/PI based flow cytometric analysis (RVB=5.57%); assay type: functional
MDA-MB-231 = assay: Cytotoxicity against human MDA-MB-231 cells assessed as inhibition of cell growth incubated for 72 hrs by MTT assay; assay type: functional, cell-based; conditions: MDA-MB-231, 72 h
RAW264.7 [22] = assay: Induction of cell cycle arrest in mouse RAW264.7 cells assessed as accumulation of cells in G1 phase at 0.5 uM incubated for 24 hrs by PI/RNase staining based flow cytometric analysis (RVB = 55.06%); assay type: functional
RAW264.7 [23] = assay: Induction of apoptosis in mouse RAW264.7 cells assessed as viable cells at 0.5 uM after 48 hrs by Annexin V-FITC/PI based flow cytometric analysis (RVB=94.1%); assay type: functional; conditions: read-out: Activity
[24] = Acute toxicity in C57BL/6J mouse assessed as safety concern at 1000 to 5000 mg/kg measured after 14 days; assay type: organism-based; conditions: in vivo, 336 h, dose 1000-5000 mg/kg, time 14 day
[25] = Acute toxicity in C57BL/6J mouse assessed as secretion in eye corner at 5000 mg/kg measured after 14 days; assay type: organism-based; conditions: in vivo, 336 h, time 14 day
RAW264.7 [26] = assay: Induction of cell cycle arrest in mouse RAW264.7 cells assessed as accumulation of cells in S phase at 0.25 uM incubated for 24 hrs by PI/RNase staining based flow cytometric analysis (RVB = 34.03%); assay type: functional
RAW264.7 [27] = assay: Induction of cell cycle arrest in mouse RAW264.7 cells assessed as accumulation of cells in G1 phase at 1 uM incubated for 24 hrs by PI/RNase staining based flow cytometric analysis (RVB = 55.06%); assay type: functional

Molecule `CCc1nc2c(C)cc(-c3ccc(CN4CCN(CCO)CC4)cc3)cn2c1NC(=O)OCc1cc(Cl)cc(Cl)c1` has an Activity (RAW264.7 [1]) of 4.78%, an IC50 (MCF7) of 3.87 µM and an Activity (RAW264.7 [2]) of 7.65%. The Activity (RAW264.7 [3]) was “Dde”, the IC50 (A549) was 6.59 µM and the Activity (RAW264.7 [4]) was 0.83%. The Activity (RAW264.7 [5]) was “Dde”, the Activity (RAW264.7 [6]) was 59.56% and the Activity (RAW264.7 [7]) was 25.72%. The Activity (RAW264.7 [8]) was 0.44%, the IC50 (NCI-H2228) was 4.27 µM and the viability at 1 µM (RAW264.7 [9]) was 90%. The viability at 0.25 µM (RAW264.7 [10]) was 92%, the IC50 (Autotaxin) was 0.0034 µM and the Activity (RAW264.7 [11]) was 1.73%. For the same molecule, the IC50 (Hep 3B2) was 0.58 µM, the IC50 (NCI-H1581) was 4.76 µM and the inhibition (RAW264.7 [12]) was “Dde”. For the same molecule, the Activity (RAW264.7 [13]) was 6%, the Activity [14] was “Non-Toxic” and the Activity (RAW264.7 [15]) was 74.09%. The Activity (RAW264.7 [16]) was 0.68%, the Activity (RAW264.7 [17]) was 90.16% and the Activity (RAW264.7 [18]) was 2.63%. The Activity (RAW264.7 [19]) was 14.72%, the Activity (RAW264.7 [20]) was 0.95% and the Activity (RAW264.7 [21]) was 8.43%. It also gave an IC50 (MDA-MB-231) of 3.29 µM, an Activity (RAW264.7 [22]) of 21.13% and a viability at 0.5 µM (RAW264.7 [23]) of 90.4%. For the same molecule, the Activity [24] was “Non-Toxic”, the Activity [25] was “Toxic” and the Activity (RAW264.7 [26]) was 18.57%. It also gave an Activity (RAW264.7 [27]) of 7.22%.
